In PMC10222328 (Pharmaceuticals, 2023):

Key:
5-LOX = biological target: T1, 5-LOX (Homo sapiens, UniProt P09917); experiment: Fluorometric 5-LOX inhibitor screening kit; type: biochemical; conditions: mean ± standard error of two measurements
T1 construct: purchased Abcam, UK
T1 sequence (P09917 1-674): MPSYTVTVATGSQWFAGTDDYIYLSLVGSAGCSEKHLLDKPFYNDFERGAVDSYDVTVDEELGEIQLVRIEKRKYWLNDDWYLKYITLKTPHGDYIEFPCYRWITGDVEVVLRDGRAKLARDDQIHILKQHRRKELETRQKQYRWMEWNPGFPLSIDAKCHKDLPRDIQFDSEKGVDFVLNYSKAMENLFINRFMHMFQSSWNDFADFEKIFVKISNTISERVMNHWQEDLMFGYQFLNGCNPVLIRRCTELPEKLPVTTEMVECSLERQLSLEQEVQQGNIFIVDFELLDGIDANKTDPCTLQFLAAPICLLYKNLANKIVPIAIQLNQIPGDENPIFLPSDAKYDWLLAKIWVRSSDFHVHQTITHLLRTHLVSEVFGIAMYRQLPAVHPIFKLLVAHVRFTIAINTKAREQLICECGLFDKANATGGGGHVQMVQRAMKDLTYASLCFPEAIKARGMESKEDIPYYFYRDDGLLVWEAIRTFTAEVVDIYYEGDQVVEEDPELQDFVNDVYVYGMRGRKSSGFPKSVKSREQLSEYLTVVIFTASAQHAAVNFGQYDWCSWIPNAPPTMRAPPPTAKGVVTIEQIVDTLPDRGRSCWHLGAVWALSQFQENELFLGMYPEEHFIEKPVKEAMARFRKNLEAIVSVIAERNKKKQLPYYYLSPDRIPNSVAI

[1] = test system: carrageenan-induced rat paw edema; experiment: Carrageenan-induced rat paw edema model; type: in vivo, Wistar albino rats; conditions: for Rat paw thickness: mean ± SD; for inhibition in vivo at 2.5 mg/kg / inhibition in vivo at 5 mg/kg / inhibition in vivo at 10 mg/kg: Rattus norvegicus, po
[2] = Acute oral toxicity evaluation in rats; type: in vivo, Wistar albino rats; conditions: single oral dose 10 mg/kg, after 14 days, (absolute organ weight × 100%)/body weight
Protocol: Healthy male rats (n = 24, three rats per group, body weight 180–200 g) were used for conducting an acute oral toxicity study. Animals were divided into the following groups: a control group that included rats that received a single dose of 1% DMSO and experimental groups that involved rats that received compounds 1–7 in the single dose of 10 mg/kg.
After oral administration of the aforementioned agents, rats were kept in single cages and monitored during 14 days. Food and water intake, as well as body weight, were measured daily. All the behavioral changes and any signs of toxicity were monitored daily during 2-week protocol (fur and skin, eyes, salivation, respiration, urination (color), faeces consistency, somatomotor activity, and other alterations in behavior pattern). After accomplishing 14 days, animals were sacrificed and organ weight (liver, kidney, stomach, and heart) was recorded. Relative organ weight was calculated as follows:(absolute organ weight × 100%)/body weight of rat on the day of sacrifice.(1)

Compound `COc1ccc(NC(=S)NC(=O)[C@@H](C)c2ccc3cc(OC)ccc3c2)cc1` [Compound 2, (S)-2-(6-methoxynaphthalen-2-yl)-N-((4-methoxyphenyl)carbamothioyl)propanamide] has an inhibition at 10 µM (5-LOX; at 10 µM, read-out: 5-LOX Percent of Inhibition) of 25.1 ± 1.83%, an IC50 (5-LOX) of 39.8 ± 1.98 µM and a Rat paw thickness ([1]; 2.5 mg/kg per os, 1 h after carrageenan) of 6.57 ± 1.16 mm. It also gave a Rat paw thickness ([1]; 2.5 mg/kg per os, 2 h after carrageenan) of 6.07 ± 0.72 mm, a Rat paw thickness ([1]; 2.5 mg/kg per os, 3 h after carrageenan) of 5.77 ± 0.42 mm and a Rat paw thickness ([1]; 2.5 mg/kg per os, 4 h after carrageenan) of 5.30 ± 0.26 mm. It also gave a Rat paw thickness ([1]; 5.0 mg/kg per os, 1 h after carrageenan) of 7.03 ± 0.47 mm, a Rat paw thickness ([1]; 5.0 mg/kg per os, 2 h after carrageenan) of 6.40 ± 0.53 mm and a Rat paw thickness ([1]; 5.0 mg/kg per os, 3 h after carrageenan) of 5.70 ± 0.20 mm. For the same compound, the Rat paw thickness ([1]; 5.0 mg/kg per os, 4 h after carrageenan) was 5.53 ± 0.29 mm, the Rat paw thickness ([1]; 10.0 mg/kg per os, 1 h after carrageenan) was 6.5 ± 0.40 mm and the Rat paw thickness ([1]; 10.0 mg/kg per os, 2 h after carrageenan) was 6.17 ± 0.67 mm. The Rat paw thickness ([1]; 10.0 mg/kg per os, 3 h after carrageenan) was 5.53 ± 0.15 mm, the Rat paw thickness ([1]; 10.0 mg/kg per os, 4 h after carrageenan) was 5.33 ± 0.25 mm and the inhibition in vivo at 2.5 mg/kg ([1]; 1 h, 2.5 mg/kg per os, 1 h after carrageenan) was 9.28%. It also gave an inhibition in vivo at 5 mg/kg ([1]; 1 h, 5.0 mg/kg per os, 1 h after carrageenan) of 6.53%, an inhibition in vivo at 10 mg/kg ([1]; 1 h, 10.0 mg/kg per os, 1 h after carrageenan) of 23% and an inhibition in vivo at 2.5 mg/kg ([1]; 2 h, 2.5 mg/kg per os, 2 h after carrageenan) of 21.8%. The inhibition in vivo at 5 mg/kg ([1]; 2 h, 5.0 mg/kg per os, 2 h after carrageenan) was 24.9%, the inhibition in vivo at 10 mg/kg ([1]; 2 h, 10.0 mg/kg per os, 2 h after carrageenan) was 29.5% and the inhibition in vivo at 2.5 mg/kg ([1]; 3 h, 2.5 mg/kg per os, 3 h after carrageenan) was 23.3%. For the same compound, the inhibition in vivo at 5 mg/kg ([1]; 3 h, 5.0 mg/kg per os, 3 h after carrageenan) was 48.9%, the inhibition in vivo at 10 mg/kg ([1]; 3 h, 10.0 mg/kg per os, 3 h after carrageenan) was 50.7% and the inhibition in vivo at 2.5 mg/kg ([1]; 4 h, 2.5 mg/kg per os, 4 h after carrageenan) was 35.6%. For the same compound, the inhibition in vivo at 5 mg/kg ([1]; 4 h, 5.0 mg/kg per os, 4 h after carrageenan) was 47.1%, the inhibition in vivo at 10 mg/kg ([1]; 4 h, 10.0 mg/kg per os, 4 h after carrageenan) was 51.7% and the “Relative organ weight, heart” value [2] was 0.33 ± 0.04. For the same compound, the “Relative organ weight, kidney” value [2] was 0.34 ± 0.04, the “Relative organ weight, liver” value [2] was 3.07 ± 0.38 and the “Relative organ weight, stomach” value [2] was 0.57 ± 0.04.
